This is an account of results in patent publication US7264925B2, “Method for analysis of oligonucleotide analogs” (AVI BioPharma, Inc., priority 2000, dated 2007).

This series in a line: Quantitation of PMO in plasma of cynomolgus monkeys following i.v. injection (anion exchange HPLC of the duplex with 5'-fluorescein labeled DNA). Format: in vivo. Here is the method:
• HPLC conditions: • Column: Dionex DNA Pac™ PA-100 (250×4 mm, 15μ particle size) • Mobile Phases: A: 0.025 M Tris (pH 9); B: 0.025 M Tris (pH 9)/1 M NaCl • Gradient: A:B:C 90/10 @ 0 min to 55/45 @ 20 min • Flow Rate: 1.5 mL/min • Wavelength: 494 nm excitation; 518 detection • Temperature: 25° C.
Cynomolgus monkeys were injected i.v. with the analyte PMO, and blood samples were taken at various time intervals, as shown in Table 2. In a typical analysis, 200 μL of plasma was combined with a known amount (e.g. 500 ng) of internal standard (FIG. 11) in 10 μL of 0.025 M Tris buffer, pH 8-9. Methanol (200.0 μL) was added, and the sample was mixed using a vortex mixer. The precipitate was removed with the aid of high speed centrifugation. The supernatant was removed and the pellet washed with 100 μL Tris buffer; the wash was added to the supernatant. The mixture was heated at 70° C. for a period of 10 minutes, and the sample was once again subjected to high speed centrifugation. The supernatant was transferred and lyophilized to dryness. The dry material was reconstituted with a 100.0 μL aliquot of DNA (5′-fluorescein labeled) in 0.025 M Tris (pH 8-9) and transferred to an autosampler vial, and the entire sample was injected onto the HPLC column and analyzed.
A calibration was performed by analysis of plasma standards containing from 250 to 20,000 ng of AVI-4126. The data were plotted as the ratio of analyte to internal standard signal intensities versus the ratio of analyte to internal standard concentrations.
The level detected in this assay was 10.0 ng analyte, which corresponded to 50 ng/mL. The sensitivity of this method thus far exceeds the detection and quantitation limits of UV based methods.

Several values for one entry are separate records, joined by “and”; a condition that tells them apart may be missing. Identical values can stand only once.

With “PMO: PMO (phosphorodiamidate morpholino oligomer) having the sequence ACGTTGAGGGGCATCGTCGC (SEQ ID NO: 1), antisense to human c-myc (antisense ACGTTGAGGGGCATCGTCGC; all phosphorodiamidate morpholino (PMO))”, under “200 μL plasma sample, representative assay, time point not stated”, the “level detected in representative assay (FIG. 12), amount of analyte” value is 10.0 ng. Besides, the “level detected in representative assay (FIG. 12), plasma concentration” value (corresponds to 10.0 ng analyte in plasma sample, time point not stated) is listed as 50 ng/mL. In addition, where the note is “cynomolgus monkey plasma, i.v. injection, 10 min, one value per monkey ID”, the “Quantitation of PMO in plasma, 10 min” value was 92.505 µg/mL and 105.37 µg/mL and 105.685 µg/mL. Besides, under “cynomolgus monkey plasma, i.v. injection, 2 h, one value per monkey ID”, the “Quantitation of PMO in plasma, 2 h” value is 49.895 µg/mL and 68.025 µg/mL and 49.755 µg/mL. Moreover, for the setting “cynomolgus monkey plasma, i.v. injection, 6 hr, one value per monkey ID”, the “Quantitation of PMO in plasma, 6 hr” value is 29.81 µg/mL and 45.33 µg/mL and 32.015 µg/mL. In addition, the “Quantitation of PMO in plasma, 24 hr” value (cynomolgus monkey plasma, i.v. injection, 24 hr, one value per monkey ID) was 17.575 µg/mL and 14.895 µg/mL and 12.645 µg/mL.
